Measurements published in patent US20250145687A1, “MODIFIED LIGAND-GATED ION CHANNELS AND METHODS OF USE” (Howard Hughes Medical Institute, priority 2022, published 2025).
Read-outs that look alike come from different tables or passages of the source.

Legend:
Format in all cases: cell-based
[1] = target: T1, α7^L131G,Q139L,Y217F-5HT3 V154L, R155Y, W156Q (Homo sapiens, UniProt P36544, L131G/M226I/Q139L/R155Y/T225I/V154L/W156Q/Y217F); test: EC50 dose response, PSAM4-5HT3 with additional mutations; conditions: read-out: EC50s (SEM) for additional mutations of α7^L131G, Q139L, Y217F -5HT3
T1 construct: expressed in transfected cells; host or cells: HEK 293

[2] = target: T2, α7-5HT3 L131G, Q139L, Y217H (Homo sapiens, UniProt P36544, L131G/M226I/Q139L/T225I/Y217H); test: EC50 dose response, α7-5HT3 mutant; conditions: read-out: EC50s (SEM) for additional mutations of α7^L131G, Q139L, Y217F -5HT3
T2 construct: expressed in transfected cells; host or cells: HEK 293
T2 sequence (P36544 with tags, fused parts or gaps L131G/Q139L/Y217H/T225I/M226I limits assumed): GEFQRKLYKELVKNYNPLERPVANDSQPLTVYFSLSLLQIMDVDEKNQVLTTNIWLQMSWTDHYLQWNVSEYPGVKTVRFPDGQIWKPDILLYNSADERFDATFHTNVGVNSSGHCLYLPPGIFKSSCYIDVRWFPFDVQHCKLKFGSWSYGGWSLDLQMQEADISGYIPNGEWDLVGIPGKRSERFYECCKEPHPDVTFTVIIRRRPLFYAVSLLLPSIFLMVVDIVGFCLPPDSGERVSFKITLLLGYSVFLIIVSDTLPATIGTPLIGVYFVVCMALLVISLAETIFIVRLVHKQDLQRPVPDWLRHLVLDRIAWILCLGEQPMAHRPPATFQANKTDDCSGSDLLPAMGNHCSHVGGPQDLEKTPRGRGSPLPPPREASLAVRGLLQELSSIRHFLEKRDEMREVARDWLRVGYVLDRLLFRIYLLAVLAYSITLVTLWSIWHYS

[3] = target: T3, α7-5HT3 L131G, Q139L, Y217V (Homo sapiens, UniProt P36544, L131G/M226I/Q139L/T225I/Y217V); test: EC50 dose response, α7-5HT3 mutant; conditions: read-out: EC50s (SEM) for additional mutations of α7^L131G, Q139L, Y217F -5HT3
T3 construct: 5HT3 ion pore domain (fusion partner); expressed in transfected cells; HEK 293 is named only for the electrophysiology

[4] = target: T4, α7^L131G,Q139L,Y217F-5HT3 H163T, S172V (Homo sapiens, UniProt P36544, H163T/L131G/M226I/Q139L/S172V/T225I/Y217F); test: EC50 dose response, PSAM4-5HT3 with additional mutations; conditions: read-out: EC50s (SEM) for additional mutations of α7^L131G, Q139L, Y217F -5HT3
T4 construct: expressed in transfected cells; host or cells: HEK 293
T4 sequence (P36544 with tags, fused parts or gaps L131G/Q139L/H163T/S172V/Y217F/T225I/M226I limits assumed): as the sequence (P36544 with tags, fused parts or gaps L131G/Q139L/Y217H/T225I/M226I limits assumed) above, with H141T, S150V, H195F counted along it

[5] = target: T5, α7^L131G,Q139L,Y217F-5HT3 V154I, R155Y, W156N, S172A (Homo sapiens, UniProt P36544, L131G/M226I/Q139L/R155Y/S172A/T225I/V154I/W156N/Y217F); test: as above; conditions: read-out: EC50s (SEM) for additional mutations of α7^L131G, Q139L, Y217F -5HT3
T5 construct: expressed in transfected cells; host or cells: HEK 293

[6] = target: T6, α7^L131G,Q139L,Y217F-5HT3 S172I (Homo sapiens, UniProt P36544, L131G/M226I/Q139L/S172I/T225I/Y217F); test: as above; conditions: additional mutation S172I; read-out: EC50s (SEM) for additional mutations of α7^L131G, Q139L, Y217F -5HT3
T6 construct: expressed in transfected cells; host or cells: HEK 293

[7] = target: T7, α7^L131G,Q139L,Y217F-5HT3 S172A (Homo sapiens, UniProt P36544, L131G/M226I/Q139L/S172A/T225I/Y217F); test: as above; conditions: additional mutation S172A; read-out: EC50s (SEM) for additional mutations of α7^L131G, Q139L, Y217F -5HT3
T7 construct: expressed in transfected cells; host or cells: HEK 293
T7 sequence (P36544 with tags, fused parts or gaps L131G/Q139L/S172A/Y217F/T225I/M226I limits assumed): as the sequence (P36544 with tags, fused parts or gaps L131G/Q139L/Y217H/T225I/M226I limits assumed) above, with S150A, H195F counted along it

[8] = target: T8, α7^L131G,Q139L,Y217F-5HT3 W156N, H163T (Homo sapiens, UniProt P36544, H163T/L131G/M226I/Q139L/T225I/W156N/Y217F); test: as above; conditions: read-out: EC50s (SEM) for additional mutations of α7^L131G, Q139L, Y217F -5HT3
T8 construct: expressed in transfected cells; host or cells: HEK 293
T8 sequence (P36544 with tags, fused parts or gaps L131G/Q139L/W156N/H163T/Y217F/T225I/M226I limits assumed): as the sequence (P36544 with tags, fused parts or gaps L131G/Q139L/Y217H/T225I/M226I limits assumed) above, with W134N, H141T, H195F counted along it

[9] = target: T9, PSAM4-5HT3 (α7-5HT3^L131G,Q139L,Y217F) (Homo sapiens, UniProt P36544, L131G/M226I/Q139L/T225I/Y217F); test: EC50 dose response of LGIC ligands on PSAM4-5HT3; conditions: read-out: EC50s (SEM) for additional mutations of α7^L131G, Q139L, Y217F -5HT3
T9 construct: expressed in transfected cells; host or cells: HEK 293
T9 sequence (P36544 with tags, fused parts or gaps L131G/Q139L/Y217F/T225I/M226I limits assumed): as the sequence (P36544 with tags, fused parts or gaps L131G/Q139L/Y217H/T225I/M226I limits assumed) above, with H195F counted along it

[10] = target: T10, α7^L131G,Q139L,Y217F-5HT3 V154I, R155Y, W156N, S172V (Homo sapiens, UniProt P36544, L131G/M226I/Q139L/R155Y/S172V/T225I/V154I/W156N/Y217F); test: EC50 dose response, PSAM4-5HT3 with additional mutations; conditions: read-out: EC50s (SEM) for additional mutations of α7^L131G, Q139L, Y217F -5HT3
T10 construct: expressed in transfected cells; host or cells: HEK 293

[11] = target: T11, α7^L131G,Q139L,Y217F-5HT3 H163N (Homo sapiens, UniProt P36544, H163N/L131G/M226I/Q139L/T225I/Y217F); test: as above; conditions: additional mutation H163N; read-out: EC50s (SEM) for additional mutations of α7^L131G, Q139L, Y217F -5HT3
T11 construct: expressed in transfected cells; host or cells: HEK 293
T11 sequence (P36544 with tags, fused parts or gaps L131G/Q139L/H163N/Y217F/T225I/M226I limits assumed): as the sequence (P36544 with tags, fused parts or gaps L131G/Q139L/Y217H/T225I/M226I limits assumed) above, with H141N, H195F counted along it

[12] = target: T12, α7^L131G,Q139L,Y217F-5HT3 H163D (Homo sapiens, UniProt P36544, H163D/L131G/M226I/Q139L/T225I/Y217F); test: as above; conditions: additional mutation H163D; read-out: EC50s (SEM) for additional mutations of α7^L131G, Q139L, Y217F -5HT3
T12 construct: expressed in transfected cells; host or cells: HEK 293

[13] = target: T13, α7^L131G,Q139L,Y217F-5HT3 H163T (Homo sapiens, UniProt P36544, H163T/L131G/M226I/Q139L/T225I/Y217F); test: as above; conditions: additional mutation H163T; read-out: EC50s (SEM) for additional mutations of α7^L131G, Q139L, Y217F -5HT3
T13 construct: expressed in transfected cells; host or cells: HEK 293

[14] = target: T14, α7^L131G,Q139L,Y217F-5HT3 W156N (Homo sapiens, UniProt P36544, L131G/M226I/Q139L/T225I/W156N/Y217F); test: cell-based
T14 construct: expressed in transfected cells; host or cells: HEK 293

[15] = target: T15, α7-5HT3 L131G, Q139L, W171F (Homo sapiens, UniProt P36544, L131G/M226I/Q139L/T225I/W171F); test: EC50 dose response, α7-5HT3 mutant; conditions: read-out: EC50s (SEM) for additional mutations of α7^L131G, Q139L, Y217F -5HT3
T15 construct: expressed in transfected cells; host or cells: HEK 293
T15 sequence (P36544 with tags, fused parts or gaps L131G/Q139L/W171F/T225I/M226I limits assumed): as the sequence (P36544 with tags, fused parts or gaps L131G/Q139L/Y217H/T225I/M226I limits assumed) above, with W149F, H195Y counted along it

[16] = target: T16, α7^L131G,Q139L,Y217F-5HT3 H163S (Homo sapiens, UniProt P36544, H163S/L131G/M226I/Q139L/T225I/Y217F); test: EC50 dose response, PSAM4-5HT3 with additional mutations; conditions: additional mutation H163S; read-out: EC50s (SEM) for additional mutations of α7^L131G, Q139L, Y217F -5HT3
T16 construct: expressed in transfected cells; host or cells: HEK 293
T16 sequence (P36544 with tags, fused parts or gaps L131G/Q139L/H163S/Y217F/T225I/M226I limits assumed): as the sequence (P36544 with tags, fused parts or gaps L131G/Q139L/Y217H/T225I/M226I limits assumed) above, with H141S, H195F counted along it

[17] = target: T17, α7^L131G,Q139L,Y217F-5HT3 H163A (Homo sapiens, UniProt P36544, H163A/L131G/M226I/Q139L/T225I/Y217F); test: as above; conditions: additional mutation H163A; read-out: EC50s (SEM) for additional mutations of α7^L131G, Q139L, Y217F -5HT3
T17 construct: expressed in transfected cells; host or cells: HEK 293

[18] = target: T18, α7^L131G,Q139L,Y217F-5HT3 H163R (Homo sapiens, UniProt P36544, H163R/L131G/M226I/Q139L/T225I/Y217F); test: as above; conditions: additional mutation H163R; read-out: EC50s (SEM) for additional mutations of α7^L131G, Q139L, Y217F -5HT3
T18 construct: expressed in transfected cells; host or cells: HEK 293

[19] = target: T19, α7^L131G,Q139L,Y217F-5HT3 H163F (Homo sapiens, UniProt P36544, H163F/L131G/M226I/Q139L/T225I/Y217F); test: as above; conditions: additional mutation H163F; read-out: EC50s (SEM) for additional mutations of α7^L131G, Q139L, Y217F -5HT3
T19 construct: expressed in transfected cells; host or cells: HEK 293

[20] = target: T20, α7^L131G,Q139L,Y217F-5HT3 H163T, S172A (Homo sapiens, UniProt P36544, H163T/L131G/M226I/Q139L/S172A/T225I/Y217F); test: as above; conditions: read-out: EC50s (SEM) for additional mutations of α7^L131G, Q139L, Y217F -5HT3
T20 construct: expressed in transfected cells; host or cells: HEK 293

[21] = target: T21, α7^L131G,Q139L,Y217F-5HT3 H163V (Homo sapiens, UniProt P36544, H163V/L131G/M226I/Q139L/T225I/Y217F); test: as above; conditions: additional mutation H163V; read-out: EC50s (SEM) for additional mutations of α7^L131G, Q139L, Y217F -5HT3
T21 construct: expressed in transfected cells; host or cells: HEK 293
T21 sequence (P36544 with tags, fused parts or gaps L131G/Q139L/H163V/Y217F/T225I/M226I limits assumed): as the sequence (P36544 with tags, fused parts or gaps L131G/Q139L/Y217H/T225I/M226I limits assumed) above, with H141V, H195F counted along it

[22] = target: T22, α7^L131G,Q139L,Y217F-5HT3 H163K (Homo sapiens, UniProt P36544, H163K/L131G/M226I/Q139L/T225I/Y217F); test: as above; conditions: additional mutation H163K; read-out: EC50s (SEM) for additional mutations of α7^L131G, Q139L, Y217F -5HT3
T22 construct: expressed in transfected cells; host or cells: HEK 293
T22 sequence (P36544 with tags, fused parts or gaps L131G/Q139L/H163K/Y217F/T225I/M226I limits assumed): as the sequence (P36544 with tags, fused parts or gaps L131G/Q139L/Y217H/T225I/M226I limits assumed) above, with H141K, H195F counted along it

[23] = target: T23, α7^L131G,Q139L,Y217F-5HT3 S172V (Homo sapiens, UniProt P36544, L131G/M226I/Q139L/S172V/T225I/Y217F); test: as above; conditions: additional mutation S172V; read-out: EC50s (SEM) for additional mutations of α7^L131G, Q139L, Y217F -5HT3
T23 construct: expressed in transfected cells; host or cells: HEK 293

[24] = target: T24, α7-5HT3 L131G, Q139L, Y217A (Homo sapiens, UniProt P36544, L131G/M226I/Q139L/T225I/Y217A); test: EC50 dose response, α7-5HT3 mutant; conditions: read-out: EC50s (SEM) for additional mutations of α7^L131G, Q139L, Y217F -5HT3
T24 construct: expressed in transfected cells; host or cells: HEK 293
T24 sequence (P36544 with tags, fused parts or gaps L131G/Q139L/Y217A/T225I/M226I limits assumed): as the sequence (P36544 with tags, fused parts or gaps L131G/Q139L/Y217H/T225I/M226I limits assumed) above, with H195A counted along it

[25] = target: T25, α7^L131G,Q139L,Y217F-5HT3 V154I, R155Y, W156N (Homo sapiens, UniProt P36544, L131G/M226I/Q139L/R155Y/T225I/V154I/W156N/Y217F); test: EC50 dose response, PSAM4-5HT3 with additional mutations; conditions: read-out: EC50s (SEM) for additional mutations of α7^L131G, Q139L, Y217F -5HT3
T25 construct: expressed in transfected cells; host or cells: HEK 293

**Q.** What does the source list for C[N+](C)(C)CCO [Choline, choline, reference compound]?
**A.** EC50 [1]: 94 µM; EC50 [2]: 2060 µM; EC50 [3]: 1160 µM; EC50 [4]: 1330 µM; EC50 [5]: 680 µM; EC50 [6]: 1110 µM; EC50 [7]: 349 µM; EC50 [8]: 646 µM; EC50 ([9]; PSAM4-5HT3 (no additional mutation)): 143 µM; EC50 ([9]; line L131G, Q139L, Y217F (same values as PSAM4-5HT3 line)): 143 µM; EC50 [10]: 910 µM; EC50 [11]: 107 µM; EC50 [12]: 361 µM; EC50 [13]: 330 µM; EC50 [14]: 172 µM; EC50 [15]: 177 µM; EC50 [16]: 245 µM; EC50 [17]: 219 µM; EC50 [18]: 153 µM; EC50 [19]: 230 µM; EC50 [20]: 1020 µM; EC50 [21]: 508 µM; EC50 [22]: 168 µM; EC50 [23]: 895 µM; EC50 [24]: 832 µM; EC50 [25]: 330 µM
